Data: PubChem BioAssay AID1963872 (Molecular Pharmacology Branch, DTP, NCI, 2024)

Tested on: KRAS patient-derived spheroids with HUVEC/MSC, viability
Assay: Anticancer human tumor 519858-162-T-J1-PDC patient-derived colon adenocarcinoma cell line growth inhibition [KRAS2]
Conditions: for IC50: curve of first compound; for viability, T/C: stronger effect = lower value
Procedure, shortened: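 Combination screen of spheroid viability in tumor-cell co-cultures with endothelial (HUVEC) and mesenchymal stem cell stroma. Each agent was tested in half-log dilutions, topping at clinical Cmax or at 10 microM without a known Cmax.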

[1] = second compound 0.1 µM, first compound 0.0316 µM
[2] = second compound 0.1 µM, first compound 0.1 µM
[3] = second compound 0.1 µM, first compound 0.316 µM
[4] = second compound 0.1 µM, first compound 1 µM
[5] = second compound 0.1 µM, first compound 3.16 µM
[6] = second compound 0.1 µM, first compound 10 µM
[7] = second compound 0.316 µM, first compound 0.0316 µM
[8] = second compound 0.316 µM, first compound 0.1 µM
[9] = second compound 0.316 µM, first compound 0.316 µM
[10] = second compound 0.316 µM, first compound 1 µM
[11] = second compound 0.316 µM, first compound 3.16 µM
[12] = second compound 0.316 µM, first compound 10 µM
[13] = second compound 1 µM, first compound 0.0316 µM
[14] = second compound 1 µM, first compound 0.1 µM
[15] = second compound 1 µM, first compound 0.316 µM
[16] = second compound 1 µM, first compound 1 µM
[17] = second compound 1 µM, first compound 3.16 µM
[18] = second compound 1 µM, first compound 10 µM
[19] = second compound 3.16 µM, first compound 0.0316 µM
[20] = second compound 3.16 µM, first compound 0.1 µM
[21] = second compound 3.16 µM, first compound 0.316 µM
[22] = second compound 3.16 µM, first compound 1 µM
[23] = second compound 3.16 µM, first compound 3.16 µM
[24] = second compound 3.16 µM, first compound 10 µM
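Further: compound exposure lasted seven days before readout.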
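Wherever viability, T/C is given: 100% = DMSO vehicle control viability.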

CC1(C)CCC(CN2CCN(c3ccc(C(=O)NS(=O)(=O)c4ccc(NCC5CCOCC5)c([N+](=O)[O-])c4)c(Oc4cnc5[nH]ccc5c4)c3)CC2)=C(c2ccc(Cl)cc2)C1 + C=CC(=O)N1CCN(c2nc(OCC3CCCN3C)nc3c2CCN(c2cccc4cccc(C)c24)C3)CC1CC#N
IC50 (second compound 0.0316 µM): 8770 nM | IC50 (second compound 0.1 µM): > 10000 nM | IC50 (second compound 0.316 µM): > 10000 nM | IC50 (second compound 1 µM): 3450 nM | IC50 (second compound 3.16 µM): 1300 nM | viability, T/C (second compound 0.0316 µM, first compound 0.0316 µM): 86.4% | viability, T/C (second compound 0.0316 µM, first compound 0.1 µM): 92.8% | viability, T/C (second compound 0.0316 µM, first compound 0.316 µM): 76.3% | viability, T/C (second compound 0.0316 µM, first compound 1 µM): 88.1% | viability, T/C (second compound 0.0316 µM, first compound 3.16 µM): 87.9% | viability, T/C (second compound 0.0316 µM, first compound 10 µM): 45.3% | viability, T/C [1]: 94.8% | viability, T/C [2]: 88.8% | viability, T/C [3]: 97% | viability, T/C [4]: 97.3% | viability, T/C [5]: 93.9% | viability, T/C [6]: 72.5% | viability, T/C [7]: 102% | viability, T/C [8]: 87% | viability, T/C [9]: 69.6% | viability, T/C [10]: 106% | viability, T/C [11]: 68.7% | viability, T/C [12]: 57.9% | viability, T/C [13]: 76.8% | viability, T/C [14]: 75.6% | viability, T/C [15]: 87.2% | viability, T/C [16]: 69% | viability, T/C [17]: 53.4% | viability, T/C [18]: 17.6% | viability, T/C [19]: 83% | viability, T/C [20]: 67% | viability, T/C [21]: 70.6% | viability, T/C [22]: 64.7% | viability, T/C [23]: 0.7% | viability, T/C [24]: 0.42%

CCNC(=O)CC1N=C(c2ccc(Cl)cc2)c2cc(OC)ccc2-n2c(C)nnc21 (stereo not given) + C=CC(=O)N1CCN(c2nc(=O)n(-c3c(C)ccnc3C(C)C)c3nc(-c4c(O)cccc4F)c(F)cc23)C(C)C1
IC50 (second compound 0.1 µM): 2660 nM | IC50 (second compound 0.316 µM): 2380 nM | IC50 (second compound 1 µM): 2560 nM | IC50 (second compound 3.16 µM): 2210 nM | IC50 (second compound 10 µM): 2680 nM | viability, T/C [1]: 120% | viability, T/C [2]: 97.1% | viability, T/C [3]: 74.8% | viability, T/C [4]: 70.3% | viability, T/C [5]: 42.1% | viability, T/C [6]: 37.1% | viability, T/C [7]: 102% | viability, T/C [8]: 95.2% | viability, T/C [9]: 79.8% | viability, T/C [10]: 54.7% | viability, T/C [11]: 53% | viability, T/C [12]: 29.7% | viability, T/C [13]: 76% | viability, T/C [14]: 74.6% | viability, T/C [15]: 70.4% | viability, T/C [16]: 79.6% | viability, T/C [17]: 44.2% | viability, T/C [18]: 28.3% | viability, T/C [19]: 93.9% | viability, T/C [20]: 86.3% | viability, T/C [21]: 101% | viability, T/C [22]: 78.2% | viability, T/C [23]: 37.6% | viability, T/C [24]: 29.4% | viability, T/C (second compound 10 µM, first compound 0.0316 µM): 93.9% | viability, T/C (second compound 10 µM, first compound 0.1 µM): 78.5% | viability, T/C (second compound 10 µM, first compound 0.316 µM): 97.6% | viability, T/C (second compound 10 µM, first compound 1 µM): 84.7% | viability, T/C (second compound 10 µM, first compound 3.16 µM): 44.1% | viability, T/C (second compound 10 µM, first compound 10 µM): 25.4%
